Values quoted from earlier work as cited in paper PMC6680430, “Quantitative Prediction of Human Pharmacokinetics and Pharmacodynamics of CKD519, a Potent Inhibitor of Cholesteryl Ester Transfer Protein (CETP)” (Pharmaceutics, 2019).

Test system: CETP
Conditions: cited from earlier work

COc1cc(F)c(C(C)C)cc1-c1ccc(C(F)(F)F)cc1CN1C(=O)O[C@H](c2cc(C(F)(F)F)cc(C(F)(F)F)c2)[C@@H]1C [anacetrapib]
peak effect, inhibition of CETP (exposure-response from literature): ~ 90%
IC50 (known in vivo value for the comparator, read-out: in vivo IC50 (plasma concentration for half of maximum CETP inhibition)): 22 nM
